What is called AC50 is the concentration at which the activity in the assay is half-maximal. One may read the EC50 as the concentration at which the effect is half-maximal. As usually defined, the CC50 is the concentration that lowers cell viability or growth by half. A word on the IC50: it is the concentration at which inhibition is half-maximal.

Active and inactive are the calls of the source.

The target in test [1] is Cytochrome P450 2C19 (Homo sapiens, UniProt P33261). As to the kind of experiment: Cytochrome panel assay with activity outcomes. Panel member name: p450-cyp2c19 Compounds with AC50 equal or less than 10 uM are considered active. As to conditions: read-out: AC50. It is filed as functional.
Test [2] concerns the target Adenosylmethionine-8-amino-7-oxononanoate aminotransferase (Mycobacterium tuberculosis, UniProt P9WQ81). As to the kind of experiment: Mycobacterium tuberculosis BioA enzyme inhibitor Measured in Biochemical System Using Plate Reader - 2163-02_Inhibitor_Dose_CherryPick_Activity. It is filed as functional, Mycobacterium tuberculosis UT205.
Test [3] has as its target T1, Cytochrome P450 1A2 (Homo sapiens, UniProt P05177).
T1 sequence (P05177 whole entry): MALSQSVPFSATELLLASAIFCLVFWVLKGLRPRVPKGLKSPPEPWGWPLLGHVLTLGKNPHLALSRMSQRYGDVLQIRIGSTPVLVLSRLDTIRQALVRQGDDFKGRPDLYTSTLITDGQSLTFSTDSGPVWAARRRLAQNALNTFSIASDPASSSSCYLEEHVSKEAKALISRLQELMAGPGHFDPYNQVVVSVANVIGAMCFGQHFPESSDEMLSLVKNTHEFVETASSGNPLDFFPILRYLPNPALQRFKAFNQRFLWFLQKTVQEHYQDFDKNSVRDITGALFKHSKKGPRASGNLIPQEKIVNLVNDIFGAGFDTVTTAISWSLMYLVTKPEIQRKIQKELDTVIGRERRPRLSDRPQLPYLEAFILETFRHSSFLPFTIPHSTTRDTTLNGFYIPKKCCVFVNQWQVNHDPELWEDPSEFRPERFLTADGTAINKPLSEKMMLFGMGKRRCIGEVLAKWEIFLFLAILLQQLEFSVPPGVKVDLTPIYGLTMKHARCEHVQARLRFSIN

The target in test [4] is DNA repair and recombination protein RAD54-like (Homo sapiens, UniProt Q92698). Nature of the test: RAD54 Holliday junction migration blockers – biochemical, fluorescence, cherry-picked samples, dose series, confirmation (AID 651657). The class given is functional.
In test [5] the test system is BJ. As to the kind of experiment: cells. It is filed as functional, cell-based. As to conditions: Homo sapiens.
Test [6] in a line: viability of PTEN-deleted HCT116 cells – cell-based, HCT116 PTEN knockout, dose response (AID 1047).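 Note: HCT116 colon tumor cells with PTEN knocked out; cells exposed to compound for 60 hours before readout; potency for loss of cell viability measured by luminescence.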 The class given is functional.
Test [7] can be described thus: viability of HCT116 lacking mutant beta-catenin – cell-based, human colon tumor, dose response (AID 1045).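 Note: HCT116 colon tumor cells with beta catenin knocked out; cells exposed to compound for 60 hours.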 It is filed as functional.
Test [8] has as its system BJ. Nature of the test: BJ-TERT-LT-ST fibroblast viability loss – cell-based, RAS-independent, luminescence, dose response (AID 1935).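 Note: BJ fibroblasts immortalized with TERT plus LT and ST oncogenes.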 It is filed as functional. The settings on record: Homo sapiens.
A short description of test [9]: DRD fibroblast viability loss – cell-based, non-viral oncogenic, luminescence, dose response (AID 1934). It is filed as functional. As to conditions: Homo sapiens.
The nature of test [10]: THP-1 cell cytotoxicity, dose response, cytotoxicity control for non-replicating M. tuberculosis project (AID 489025). It is filed as functional.
The nature of test [11]: HepG2 cell cytotoxicity, dose response, cytotoxicity control for non-replicating M. tuberculosis project (AID 489018). The class given is functional. As to conditions: Mycobacterium tuberculosis.
The nature of test [12]: Vero E6 cell cytotoxicity, dose response, cytotoxicity control for non-replicating M. tuberculosis project, secondary assay (AID 492998). The class given is functional, VeroE6. The settings on record: Vero C1008.
Test [13] concerns the target Neurotensin receptor type 1 (Homo sapiens, UniProt P30989). The class given is functional.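 Note: Image-based confirmatory dose-response assay measuring agonist activity at NTR1; NTR1-expressing U2OS osteosarcoma cells imaged for beta-arrestin GFP spot formation; agonist potency where compounds increase beta-arrestin recruitment.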
A short description of test [14]: cells. It is filed as functional.
Test [15] concerns the target T2, Replicative DNA helicase DnaB (Mycobacterium tuberculosis, UniProt P9WMR3).
T2 sequence (P9WMR3 whole entry): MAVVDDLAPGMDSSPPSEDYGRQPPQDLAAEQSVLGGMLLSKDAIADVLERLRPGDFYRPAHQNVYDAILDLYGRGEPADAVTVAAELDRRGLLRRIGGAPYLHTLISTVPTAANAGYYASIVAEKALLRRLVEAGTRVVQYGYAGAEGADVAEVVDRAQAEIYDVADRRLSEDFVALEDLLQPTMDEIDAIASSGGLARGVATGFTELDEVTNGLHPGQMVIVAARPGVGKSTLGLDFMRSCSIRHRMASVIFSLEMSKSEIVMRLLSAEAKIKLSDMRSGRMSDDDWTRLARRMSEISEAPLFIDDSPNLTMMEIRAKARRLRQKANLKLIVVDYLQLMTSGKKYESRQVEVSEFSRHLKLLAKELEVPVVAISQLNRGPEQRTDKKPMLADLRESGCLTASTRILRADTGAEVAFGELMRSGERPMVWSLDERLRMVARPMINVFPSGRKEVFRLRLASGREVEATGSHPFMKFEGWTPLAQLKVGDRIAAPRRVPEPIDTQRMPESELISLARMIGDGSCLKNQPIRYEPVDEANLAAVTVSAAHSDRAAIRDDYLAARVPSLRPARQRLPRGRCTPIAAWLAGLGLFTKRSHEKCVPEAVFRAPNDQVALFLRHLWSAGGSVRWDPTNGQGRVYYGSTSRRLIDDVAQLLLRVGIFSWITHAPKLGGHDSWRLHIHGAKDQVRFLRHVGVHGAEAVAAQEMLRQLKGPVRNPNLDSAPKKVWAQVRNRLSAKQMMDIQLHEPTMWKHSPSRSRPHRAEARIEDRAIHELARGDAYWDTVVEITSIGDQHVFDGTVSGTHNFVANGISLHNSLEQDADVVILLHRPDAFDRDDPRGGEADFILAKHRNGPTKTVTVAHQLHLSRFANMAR
Nature of the test: DnaB intein splicing inhibitors, dose response, biochemical, cell-free fluorescence (AID 449749). It is filed as functional.

Test [16] concerns the target Heat shock protein HSP 90-alpha (Homo sapiens, UniProt P07900). The class given is functional, organism-based.
In test [17] the test system is Vero. As to the kind of experiment: viability of Vero cells under compound – cytotoxicity control for flavivirus capping enzyme inhibitors (AID 588742). The class given is functional. As to conditions: Chlorocebus sabaeus.
Test [18] addresses T3, Protein RecA (Mycobacterium tuberculosis, UniProt P9WHJ3).
T3 sequence (P9WHJ3 whole entry): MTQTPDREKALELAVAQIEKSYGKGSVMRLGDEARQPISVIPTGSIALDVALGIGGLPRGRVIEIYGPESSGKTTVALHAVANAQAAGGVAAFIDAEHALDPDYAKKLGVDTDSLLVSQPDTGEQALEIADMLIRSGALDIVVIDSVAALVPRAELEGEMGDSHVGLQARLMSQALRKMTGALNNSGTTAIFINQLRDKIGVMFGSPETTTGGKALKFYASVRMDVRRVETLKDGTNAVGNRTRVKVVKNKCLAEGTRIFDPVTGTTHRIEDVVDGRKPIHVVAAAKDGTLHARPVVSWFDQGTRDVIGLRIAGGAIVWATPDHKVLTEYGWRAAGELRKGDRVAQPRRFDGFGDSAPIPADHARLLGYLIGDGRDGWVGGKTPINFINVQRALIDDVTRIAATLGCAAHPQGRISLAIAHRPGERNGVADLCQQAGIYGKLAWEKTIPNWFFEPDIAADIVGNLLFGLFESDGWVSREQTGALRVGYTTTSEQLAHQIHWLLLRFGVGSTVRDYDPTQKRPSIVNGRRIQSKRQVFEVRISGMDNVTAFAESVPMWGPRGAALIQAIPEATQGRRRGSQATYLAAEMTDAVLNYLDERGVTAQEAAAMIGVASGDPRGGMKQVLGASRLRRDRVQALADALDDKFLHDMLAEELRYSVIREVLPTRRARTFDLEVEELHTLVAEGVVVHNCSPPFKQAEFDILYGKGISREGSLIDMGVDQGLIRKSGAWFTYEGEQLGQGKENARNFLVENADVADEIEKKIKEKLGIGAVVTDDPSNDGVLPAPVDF
Nature of the test: Fluorescence Cell-Free Homogeneous Dose Retest to Identify Inhibitors of RecA-Intein Splicing Activity. [Related pubchem assays (depositor defined):AID2097, AID2223, AID489010, AID492950]. It is filed as functional.

Test [19] concerns INS1. Nature of the test: INS-1E survival protection against cytokine death – cell-based, luminescence, retest, dose response (AID 449756).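 Note: cell death triggered by IL-1 beta plus TNF-alpha plus IFN-gamma mixture; protective hits raise ATP signal compared with cytokine alone wells.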 As to conditions: Rattus norvegicus. It is filed as functional.
Test [20] has as its target Genome polyprotein (dengue virus type 2, UniProt P29990). Nature of the test: flavivirus cap methylation enzyme inhibition – biochemical, confirmation dose response, primary screen (AID 588689). The class given is functional.
The nature of test [21]: Fluorescence-based cell-based high throughput dose response assay for inhibitors of the interaction of nucleotide-binding oligomerization domain containing 2 (NOD2) and the receptor-interacting serine-threonine kinase 2 (RIPK2). It is filed as functional. The settings on record: Homo sapiens.
Test [22] concerns the target Beta Lactamase (Pseudomonas aeruginosa, UniProt Q932Y6). Nature of the test: BLA reporter interference, concentration series – BLA reporter cells, FRET fluorescence, artefact control for NOD2-RIPK2 interaction inhibitor project, dose response (AID 651552). It is filed as functional, cell-based.
Test [23] concerns the target T4, Fatty acid synthase (Homo sapiens, UniProt P49327). Nature of the test: inhibition of human FAS-TE enzyme activity – biochemical, endpoint fluorescence intensity, uHTS hits, dose response (AID 624327).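 Note: fluorescence from hydrolysis of an O-methyl fluorescein acyl ester substrate by the enzyme.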 It is filed as functional.
In test [24] the target is T4, Fatty acid synthase. Nature of the test: inhibition of human FAS-TE enzyme activity – biochemical, kinetic fluorescence intensity, dose response (AID 624326).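 Note: rate of fluorescence rise from hydrolysis of a fluorogenic O-methyl fluorescein ester substrate.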 The class given is functional.

T4 sequence (P49327 whole entry): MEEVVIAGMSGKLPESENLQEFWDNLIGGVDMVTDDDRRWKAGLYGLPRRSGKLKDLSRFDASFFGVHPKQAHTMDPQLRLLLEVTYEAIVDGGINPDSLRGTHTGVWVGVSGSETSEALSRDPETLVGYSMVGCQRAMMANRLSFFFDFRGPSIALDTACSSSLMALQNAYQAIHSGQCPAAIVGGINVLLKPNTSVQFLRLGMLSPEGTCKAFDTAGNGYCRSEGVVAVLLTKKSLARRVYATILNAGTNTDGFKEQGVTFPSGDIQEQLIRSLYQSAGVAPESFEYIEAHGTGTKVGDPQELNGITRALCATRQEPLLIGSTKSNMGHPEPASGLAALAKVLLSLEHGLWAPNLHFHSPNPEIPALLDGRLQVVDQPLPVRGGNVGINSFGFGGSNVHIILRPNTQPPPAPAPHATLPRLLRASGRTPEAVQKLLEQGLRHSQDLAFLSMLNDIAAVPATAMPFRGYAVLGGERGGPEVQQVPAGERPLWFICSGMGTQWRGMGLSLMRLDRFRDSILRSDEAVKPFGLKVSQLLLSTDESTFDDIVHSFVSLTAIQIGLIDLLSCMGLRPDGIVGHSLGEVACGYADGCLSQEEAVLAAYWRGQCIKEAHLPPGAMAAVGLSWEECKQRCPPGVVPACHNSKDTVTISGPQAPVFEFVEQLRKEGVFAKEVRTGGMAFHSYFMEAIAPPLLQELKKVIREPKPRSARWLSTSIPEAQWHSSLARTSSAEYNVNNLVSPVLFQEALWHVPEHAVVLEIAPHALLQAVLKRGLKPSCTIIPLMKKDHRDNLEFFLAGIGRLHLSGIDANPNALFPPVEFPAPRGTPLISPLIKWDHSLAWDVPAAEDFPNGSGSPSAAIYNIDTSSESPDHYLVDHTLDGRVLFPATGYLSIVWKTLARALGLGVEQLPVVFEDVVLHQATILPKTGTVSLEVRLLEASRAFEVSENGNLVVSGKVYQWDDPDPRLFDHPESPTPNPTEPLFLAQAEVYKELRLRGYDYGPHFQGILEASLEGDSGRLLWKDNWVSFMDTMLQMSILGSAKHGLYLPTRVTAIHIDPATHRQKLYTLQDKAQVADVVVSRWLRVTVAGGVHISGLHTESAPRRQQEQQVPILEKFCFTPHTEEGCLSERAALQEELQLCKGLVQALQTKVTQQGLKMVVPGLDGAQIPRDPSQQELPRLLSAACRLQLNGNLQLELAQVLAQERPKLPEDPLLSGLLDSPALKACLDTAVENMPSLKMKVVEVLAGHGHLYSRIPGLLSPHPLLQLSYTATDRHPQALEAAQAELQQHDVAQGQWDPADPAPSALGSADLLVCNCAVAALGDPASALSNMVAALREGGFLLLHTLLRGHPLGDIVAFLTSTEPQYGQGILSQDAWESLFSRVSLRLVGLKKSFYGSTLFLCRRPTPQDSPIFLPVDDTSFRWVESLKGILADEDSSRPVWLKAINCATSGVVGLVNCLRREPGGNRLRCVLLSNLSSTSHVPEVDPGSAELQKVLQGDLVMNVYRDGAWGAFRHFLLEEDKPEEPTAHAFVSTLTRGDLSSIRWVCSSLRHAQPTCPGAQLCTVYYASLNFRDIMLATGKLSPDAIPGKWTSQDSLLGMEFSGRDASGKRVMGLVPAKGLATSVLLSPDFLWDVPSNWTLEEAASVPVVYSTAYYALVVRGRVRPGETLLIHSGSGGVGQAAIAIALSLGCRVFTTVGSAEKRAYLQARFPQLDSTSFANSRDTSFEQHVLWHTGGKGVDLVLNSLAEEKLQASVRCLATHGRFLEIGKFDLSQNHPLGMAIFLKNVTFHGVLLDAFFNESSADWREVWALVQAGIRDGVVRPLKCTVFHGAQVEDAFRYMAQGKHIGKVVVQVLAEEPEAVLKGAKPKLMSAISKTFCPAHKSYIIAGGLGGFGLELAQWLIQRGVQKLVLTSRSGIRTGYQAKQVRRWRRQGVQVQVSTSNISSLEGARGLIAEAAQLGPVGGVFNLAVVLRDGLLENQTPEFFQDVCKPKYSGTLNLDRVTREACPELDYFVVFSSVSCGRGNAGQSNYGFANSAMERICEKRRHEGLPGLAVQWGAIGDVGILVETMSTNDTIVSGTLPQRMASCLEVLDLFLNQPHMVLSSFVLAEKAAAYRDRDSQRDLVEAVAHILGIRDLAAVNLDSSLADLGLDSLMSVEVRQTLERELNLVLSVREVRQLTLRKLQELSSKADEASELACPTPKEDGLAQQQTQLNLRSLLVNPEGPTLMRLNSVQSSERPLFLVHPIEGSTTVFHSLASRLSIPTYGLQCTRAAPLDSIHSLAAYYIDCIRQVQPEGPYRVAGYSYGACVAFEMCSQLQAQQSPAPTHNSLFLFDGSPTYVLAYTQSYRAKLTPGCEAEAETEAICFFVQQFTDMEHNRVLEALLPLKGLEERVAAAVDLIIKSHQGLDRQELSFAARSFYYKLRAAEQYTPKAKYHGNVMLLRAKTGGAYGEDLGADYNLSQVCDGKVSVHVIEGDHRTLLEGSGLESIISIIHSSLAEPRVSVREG
Beta Lactamase, sequence (Q932Y6 whole entry): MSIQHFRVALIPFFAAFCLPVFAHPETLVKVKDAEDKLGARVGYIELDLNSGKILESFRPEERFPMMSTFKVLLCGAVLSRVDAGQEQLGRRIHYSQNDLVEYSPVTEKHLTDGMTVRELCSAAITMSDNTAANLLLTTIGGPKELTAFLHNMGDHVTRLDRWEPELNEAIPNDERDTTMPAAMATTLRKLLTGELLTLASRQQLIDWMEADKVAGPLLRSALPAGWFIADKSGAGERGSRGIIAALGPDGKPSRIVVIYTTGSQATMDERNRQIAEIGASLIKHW
DNA repair and recombination protein RAD54-like, sequence (Q92698 whole entry): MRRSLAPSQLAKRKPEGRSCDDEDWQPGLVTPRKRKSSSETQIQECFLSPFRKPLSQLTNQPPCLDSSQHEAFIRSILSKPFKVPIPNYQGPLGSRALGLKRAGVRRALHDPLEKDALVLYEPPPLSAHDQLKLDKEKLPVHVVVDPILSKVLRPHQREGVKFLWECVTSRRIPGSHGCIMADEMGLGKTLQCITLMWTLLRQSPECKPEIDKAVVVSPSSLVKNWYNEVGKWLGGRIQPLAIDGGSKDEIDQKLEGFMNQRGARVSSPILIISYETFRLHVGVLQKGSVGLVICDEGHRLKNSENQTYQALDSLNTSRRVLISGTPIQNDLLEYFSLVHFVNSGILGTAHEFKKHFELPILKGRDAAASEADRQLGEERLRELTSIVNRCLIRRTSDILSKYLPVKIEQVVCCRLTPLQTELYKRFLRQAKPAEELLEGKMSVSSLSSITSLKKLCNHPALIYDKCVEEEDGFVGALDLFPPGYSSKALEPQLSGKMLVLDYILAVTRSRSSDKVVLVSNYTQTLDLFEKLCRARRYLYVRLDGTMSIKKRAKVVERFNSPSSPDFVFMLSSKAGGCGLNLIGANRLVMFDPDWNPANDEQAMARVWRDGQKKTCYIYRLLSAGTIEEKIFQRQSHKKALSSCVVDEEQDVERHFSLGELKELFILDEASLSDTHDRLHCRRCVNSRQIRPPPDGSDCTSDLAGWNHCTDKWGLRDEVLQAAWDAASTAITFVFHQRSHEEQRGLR
Neurotensin receptor type 1, sequence (P30989 whole entry): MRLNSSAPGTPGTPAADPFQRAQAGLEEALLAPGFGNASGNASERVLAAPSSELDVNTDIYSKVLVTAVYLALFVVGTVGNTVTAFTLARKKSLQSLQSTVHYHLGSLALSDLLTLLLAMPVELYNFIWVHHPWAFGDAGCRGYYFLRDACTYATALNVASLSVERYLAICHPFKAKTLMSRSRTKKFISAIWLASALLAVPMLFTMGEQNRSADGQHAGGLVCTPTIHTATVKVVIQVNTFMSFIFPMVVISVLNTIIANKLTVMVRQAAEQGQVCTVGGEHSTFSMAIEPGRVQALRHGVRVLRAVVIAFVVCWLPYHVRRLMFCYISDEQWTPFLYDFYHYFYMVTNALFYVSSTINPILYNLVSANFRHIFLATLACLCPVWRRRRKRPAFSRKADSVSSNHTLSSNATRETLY
Cytochrome P450 2C19, sequence (P33261 whole entry): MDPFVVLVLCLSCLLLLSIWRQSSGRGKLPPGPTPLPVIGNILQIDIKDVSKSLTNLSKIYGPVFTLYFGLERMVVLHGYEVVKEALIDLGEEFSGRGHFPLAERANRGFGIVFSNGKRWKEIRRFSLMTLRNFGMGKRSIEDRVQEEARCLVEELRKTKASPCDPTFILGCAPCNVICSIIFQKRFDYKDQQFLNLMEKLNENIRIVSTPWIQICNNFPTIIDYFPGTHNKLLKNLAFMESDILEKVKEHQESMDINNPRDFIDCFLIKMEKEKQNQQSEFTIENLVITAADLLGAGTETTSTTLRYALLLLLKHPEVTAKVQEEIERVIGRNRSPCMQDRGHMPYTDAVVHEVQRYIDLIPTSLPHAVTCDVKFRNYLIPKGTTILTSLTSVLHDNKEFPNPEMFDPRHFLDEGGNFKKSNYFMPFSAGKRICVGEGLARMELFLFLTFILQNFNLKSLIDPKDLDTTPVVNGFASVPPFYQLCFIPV
Adenosylmethionine-8-amino-7-oxononanoate aminotransferase, sequence (P9WQ81 whole entry): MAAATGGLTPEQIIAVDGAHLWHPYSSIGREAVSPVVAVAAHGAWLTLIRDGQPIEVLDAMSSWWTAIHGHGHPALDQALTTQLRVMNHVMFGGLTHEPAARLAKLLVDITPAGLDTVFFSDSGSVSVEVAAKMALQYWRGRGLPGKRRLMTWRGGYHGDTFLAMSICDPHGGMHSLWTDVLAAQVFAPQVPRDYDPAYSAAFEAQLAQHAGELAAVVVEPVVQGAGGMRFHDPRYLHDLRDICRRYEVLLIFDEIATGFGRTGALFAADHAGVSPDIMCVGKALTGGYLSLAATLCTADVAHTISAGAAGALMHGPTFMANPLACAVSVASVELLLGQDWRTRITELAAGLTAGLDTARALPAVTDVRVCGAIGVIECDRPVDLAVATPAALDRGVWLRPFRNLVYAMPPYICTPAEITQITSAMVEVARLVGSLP

`Cc1cc(/C=C(/C#N)C(=O)Nc2ccccc2)c(C)n1-c1cccnc1`: the AC50 in test [1] is 2 µM (inconclusive); in test [2], 0.306 µM (active); in test [3], 1.78 µM (inconclusive).

Take `COc1ccc(OC)c2c(C)cc(NCCN3CCOCC3)nc12`: the AC50 in test [4] was 37.6 µM (active).

As to `CC1=NNC(=O)/C1=C\c1cn(-c2ccccc2)nc1-c1cccs1`, the EC50 was 4.55 µM (inconclusive) in test [5]; 7.38 µM (active) in test [6]; 7.11 µM (active) in test [7]; 13 µM (active) in test [8]; 5.32 µM (active) in test [9]; 5.14 µM (active) in test [13]. Moreover, the concentration for a half-maximal effect (EC50) in test [18] was 1.44 µM (active). Moreover, the CC50 is 7.31 µM (active) in test [10], 9.49 µM (active) in [11], 9.79 µM (active) in test [12] and 10.9 µM (active) in test [17]. The IC50 is 24.8 µM (active) in test [14], > 100 µM (active) in test [20], 1.55 µM (active) in test [21] and 49.8 µM (inactive) in [22]. In addition, the AC50 was 3.97 µM (active) in test [15], 1.87 µM (active) in test [16] and 7.34 µM (active) in test [19].

Consider `CCOC(=O)[C@]12Cc3cc(C)ccc3[C@H]1N(C1CCCCC1)C(=O)c1ccccc12`, for which the concentration for half-maximal inhibition (IC50) in [21] is 2.28 µM (active); in test [22], 39 µM (inactive); in test [23], 6.98 µM (active); in test [24], 6.17 µM (active).

(Values after ChEMBL document CHEMBL1201862, “PubChem BioAssay data set” (2004).)
